Counter-ions that a name gives are not always drawn.
Row | melting point | SMILES
1 | 174 to 176 °C | CN(C)C1CCN(CCc2ccc(-c3cccc(N)n3)cc2)CC1 [Example 21, 6-{4-[2-(4-Dimethylamino-piperidin-1-yl)-ethyl]-phenyl}-pyridin-2-ylamine]
2 | 190 to 195 °C | Nc1cccc(-c2ccc(CCN3CCC(N)CC3)cc2)n1 (as salt: trifluoroacetate) [Example 67, 6-{4-[2-(4-Amino-piperidin-1-yl)-ethyl]-phenyl}-pyridin-2-ylamine]
3 | 60 to 70 °C (dec.) | Nc1cccc(-c2ccc(CCNC3Cc4ccccc4C3)cc2)n1 (as salt: hydrochloride) [Example 117, 6-{4-[2-(Indan-2-ylamino)-ethyl]-phenyl}-pyridin-2-ylamine]
4 | 120 °C (dec.) | Nc1cccc(-c2cccc(CCN3CCN(CCc4ccccc4)CC3)c2)n1 (as salt: hydrochloride) [Example 130, 6-{3-[2-(4-Phenethyl-piperazin-1-yl)-ethyl]-phenyl}-pyridin-2-ylamine]
5 | > 220 °C | Nc1cccc(-c2ccc(CCN3CCN(C4CCc5ccccc5C4)CC3)cc2)n1 (centres unmarked) (as salt: hydrochloride) [Example 55, 6-(4-{2-[4-(1,2,3,4-Tetrahydro-naphthalen-2-yl)-piperazin-1-yl]-ethyl}-phenyl)-pyridin-2-ylamine]
6 | 160 to 163 °C | Cl.Nc1cccc(-c2ccc(CCN3CC4C(C3)C4NCCCc3ccccc3)cc2)n1 (centres unmarked)
7 | 165 to 167 °C | Nc1cccc(-c2ccc(CCN3CCN(CCc4ccc(F)cc4)CC3)cc2)n1 [Example 53, 6-[4-(2-{4-[2-(4-Fluoro-phenyl)-ethyl]-piperazin-1-yl}-ethyl)-phenyl]-pyridin-2-ylamine]
8 | 170 °C (dec.) | Nc1cccc(-c2ccc(CCN3CCN(C(c4ccccc4)c4ccccc4)CC3)cc2)n1 (as salt: hydrochloride) [Example 89, 6-{4-[2-(4-Benzhydryl-piperazin-1-yl)-ethyl]-phenyl}-pyridin-2-ylamine]
9 | 161 to 163 °C | Nc1cccc(-c2ccc(CCN3CC4C(C3)C4NC(=O)Cc3ccc(F)cc3)cc2)n1 (centres unmarked) [Example 38, N-(3-{2-[4-(6-Amino-pyridin-2-yl)-phenyl]-ethyl}-3-aza-bicyclo[3.1.0]hex-6-yl)-2-(4-fluoro-phenyl)-acetamide]
10 | 100 °C (dec.) | Nc1cccc(-c2ccc(CCN3CCC(c4ccccc4)C3)cc2)n1 (centres unmarked) (as salt: hydrochloride) [Example 26, 6-{4-[2-(3-Phenyl-pyrrolidin-1-yl)-ethyl]-phenyl}-pyridin-2-ylamine]
11 | 140 to 143 °C | Nc1cccc(-c2ccc(CCN3Cc4ccccc4C3)cc2)n1 [Example 22, 6-{4-[2-(1,3-Dihydro-isoindol-2-yl)-ethyl]-phenyl}-pyridin-2-ylamine]
12 | 192 to 194 °C | Nc1cccc(-c2ccc(CCN3CC4C(C3)C4NC(=O)Nc3ccccc3)cc2)n1 (centres unmarked) [Example 36, 1-(3-{2-[4-(6-Amino-pyridin-2-yl)-phenyl]-ethyl}-3-aza-bicyclo[3.1.0]hex-6-yl)-3-phenyl-urea]
13 | 235 °C (dec.) | Nc1cccc(-c2ccc(CCN3CC4CCC(C3)C4N)cc2)n1 (centres unmarked) (as salt: hydrochloride)
14 | 158 to 161 °C | Nc1cccc(-c2ccc(CCN3CCN(c4nc(-c5ccccc5)cs4)CC3)cc2)n1 [Example 15, 6-(4-{2-[4-(4-Phenyl-thiazol-2-yl)-piperazin-1-yl]-ethyl}-phenyl)-pyridin-2-ylamine]
15 | 230 °C (dec.) | Nc1cccc(-c2ccc(CCN3CCN(C(=O)C(N)Cc4ccccc4)CC3)cc2)n1 (centres unmarked) (as salt: hydrochloride) [Example 61, 2-Amino-1-(4-{2-[4-(6-amino-pyridin-2-yl)-phenyl]-ethyl}-piperazin-1-yl)-3-phenyl-propan-1-one]
16 | 172 to 181 °C | Nc1cccc(-c2ccc(CCN3CCN(C(=O)NCc4ccccc4)CC3)cc2)n1 [Example 47, 4-{2-[4-(6-Amino-pyridin-2-yl)-phenyl]-ethyl}-piperazine-1-carboxylic acid benzylamide]
17 | 150 to 163 °C (dec.) | Nc1cccc(-c2ccc(CCN(Cc3ccncc3)Cc3ccncc3)cc2)n1 (as salt: hydrochloride) [Example 120, 6-{4-[2-(Bis-pyridin-4-ylmethyl-amino)-ethyl]-phenyl}-pyridin-2-ylamine]
18 | 150 °C (dec.) | Nc1cccc(-c2ccc(CCN3CCCC(N)C3)cc2)n1 (centres unmarked) (as salt: hydrochloride) [Example 86, 6-{4-[2-(3-Amino-piperidin-1-yl)-ethyl]-phenyl}-pyridin-2-ylamine]
19 | 135 to 137 °C | Nc1cccc(-c2ccc(CCN3CCN(C(=O)Cc4ccccc4)CC3)cc2)n1

Further lines, the compound ahead of its results:

Row | SMILES | melting point
20 | Nc1cccc(-c2ccc(CCNC3C4CCCC3CN(Cc3ccccc3)C4)cc2)n1 (centres unmarked) (as salt: hydrochloride) [Example 84, {2-[4-(6-Amino-pyridin-2-yl)-phenyl]-ethyl}-(3-benzyl-3-aza-bicyclo[3.3.1]non-9-yl)-amine] | 190 °C (dec.)
21 | Nc1cccc(-c2ccc(CCN3CCN(CCc4ccccc4)CC3)cc2)n1 [Example 1, 6-{4-[2-(4-Phenethyl-piperazin-1-yl)-ethyl]-phenyl}-pyridin-2-ylamine] | 111 to 113 °C
22 | Nc1cccc(-c2ccc(CCN(CC3CCCCC3)CC3CCCCC3)cc2)n1 (as salt: salt) [Example 124, 6-{4-[2-(Bis-cyclohexylmethyl-amino)-ethyl]-phenyl}-pyridin-2-ylamine] | 75 to 85 °C
23 | CC(=O)N1CCN(CCc2ccc(-c3cccc(N)n3)cc2)CC1 [Example 10, 1-(4-{2-[4-(6-Amino-pyridin-2-yl)-phenyl]-ethyl}-piperazin-1-yl)-ethanone] | 201 to 203 °C
24 | Nc1cccc(-c2ccc(CCN3CCN(C(=O)c4ccco4)CC3)cc2)n1 [Example 7, (4-{2-[4-(6-Amino-pyridin-2-yl)-phenyl]-ethyl}-piperazin-1-yl)-furan-2-yl-methanone] | 152 to 154 °C
25 | Nc1cccc(-c2ccc(CN3CC4C(N)C4C3)cc2)n1 (centres unmarked) (as salt: hydrochloride) | 189 to 192 °C (dec.)
26 | Nc1cccc(-c2ccc(CCN3CCN(C(=O)NC4CCCCC4)CC3)cc2)n1 [Example 32, 4-{2-[4-(6-Amino-pyridin-2-yl)-phenyl]-ethyl}-piperazine-1-carboxylic acid cyclohexylamide] | 180 to 182 °C
27 | Nc1cccc(-c2ccc(CCN3C4CCC3CC(N)C4)cc2)n1 (centres unmarked) (as salt: hydrochloride) | > 300 °C
28 | Nc1cccc(-c2ccc(CCN3CCN(c4nnnn4-c4ccc(F)cc4)CC3)cc2)n1 [Example 48, 6-[4-(2-{4-[1-(4-Fluoro-phenyl)-1H-tetrazol-5-yl]-piperazin-1-yl}-ethyl)-phenyl]-pyridin-2-ylamine] | 185 to 187 °C
29 | Nc1cccc(-c2ccc(CCN3CCN(c4nnnn4-c4ccccc4)CC3)cc2)n1 [Example 27, 6-(4-{2-[4-(1 -Phenyl-1H-tetrazol-5-yl)-piperazin-1-yl]-ethyl}-phenyl)-pyridin-2-ylamine] | 212 to 214 °C
30 | Nc1cccc(-c2ccc(CCN3CCN(C(=O)Oc4ccccc4)CC3)cc2)n1 | 102 to 104 °C
31 | CN1CC2CC1CN2CCc1ccc(-c2cccc(N)n2)cc1 (centres unmarked) (as salt: hydrochloride) | 132 °C (dec.)
32 | Nc1cccc(-c2ccc(CCNC3CC4CCC(C3)N4Cc3ccc(Cl)cc3)cc2)n1 (centres unmarked) (as salt: hydrochloride) | 198 °C (dec.)
33 | Nc1cccc(-c2ccc(CCNC3CC4COCC(C3)N4)cc2)n1 (centres unmarked) (as salt: hydrochloride) [104] | 100 °C (dec.)
34 | Nc1cccc(-c2ccc(CCN3CCC(NC(=O)NC4CCCCC4)C3)cc2)n1 (centres unmarked) (as salt: hydrochloride) [Example 74, 1-(1-{2-[4-(6-Amino-pyridin-2-yl)-phenyl]-ethyl}-pyrrolidin-3-yl)-3-cyclohexyl-urea] | 120 °C (dec.)
35 | Nc1cccc(-c2ccc(CCNC3CC4CCC(C3)N4C(=O)Cc3ccc(F)cc3)cc2)n1 (centres unmarked) (as salt: hydrochloride) | 170 °C (dec.)
36 | Nc1cccc(-c2ccc(CCN3CCC(NC(=O)Cc4ccc(F)cc4)CC3)cc2)n1 (as salt: hydrochloride) [Example 65, N-(1-{2-[4-(6-Amino-pyridin-2-yl)-phenyl]-ethyl}-piperidin-4-yl)-2-(4-fluoro-phenyl)-acetamide] | 170 °C (dec.)
37 | Nc1cccc(-c2ccc(CCN3CCN(C(=O)Cc4ccc(Cl)cc4)CC3)cc2)n1 (as salt: hydrochloride) | 205 °C (dec.)
38 | Nc1cccc(-c2ccc(CCN3CCN(C(=O)C4CCCC4)CC3)cc2)n1 [Example 13, (4-{2-[4-(6-Amino-pyridin-2-yl)-phenyl]-ethyl}-piperazin-1-yl)-cyclopentyl-methanone] | 185 to 187 °C
39 | CN(Cc1ccc(-c2cccc(N)n2)cc1)C1CCCCC1 (as salt: hydrochloride) [Example 136, 6-{4-[(Cyclohexyl-methyl-amino)-methyl]-phenyl}-pyridin-2-ylamine] | > 250 °C
40 | Cc1cccc(NC(=O)N2CCN(CCc3ccc(-c4cccc(N)n4)cc3)CC2)c1 [Example 45, 4-{2-[4-(6-Amino-pyridin-2-yl)-phenyl]-ethyl}-piperazine-1-carboxylic acid m-tolyl-amide] | 88 to 94 °C
41 | Cc1ccc(NC(=O)N2CCN(CCc3ccc(-c4cccc(N)n4)cc3)CC2)cc1C [Example 41, 4-{2-[4-(6-Amino-pyridin-2-yl)-phenyl]-ethyl}-piperazine-1carboxylic acid (3,4-dimethyl-phenyl)-amide] | 122 to 125 °C
42 | Nc1cccc(-c2ccc(CCN3C4CCC3CC(NC(=O)Cc3ccc(F)cc3)C4)cc2)n1 (centres unmarked) (as salt: hydrochloride) | 160 °C (dec.)
43 | Nc1cccc(-c2ccc(CCNCCc3ccccc3)cc2)n1 (as salt: hydrochloride) [Example 35, 6-[4-(2-Phenethylamino-ethyl)-phenyl]-pyridin-2-ylamine] | 212 to 215 °C
44 | CC(C)CN1CCN(CCc2ccc(-c3cccc(N)n3)cc2)CC1 [Example 17, 6-{4-[2-(4-Isobutyl-piperazin-1-yl)-ethyl]-phenyl}-pyridin-2-ylamine] | 85 to 88 °C
